# Inconclusive results and toxic doses are left out.
# Tested on: L1210 leukemia ip in BDF1 mice, survival T/C
# Experiment: NCI In Vivo Anticancer Drug Screen. Data for tumor model L1210 Leukemia (intraperitoneal) in B6D2F1 (BDF1) mice
# Details: endpoint: mean survival time, higher = longer survival
# Procedure, shortened: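 Ratio derived from survival: compound-dosed mice over vehicle-dosed mice, all bearing a transplantable tumor.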
# [1] = dose: 100.0 mg/kg/injection, schedule: Q04DX003 (ip), vehicle: saline
# [2] = dose: 50.0 mg/kg/injection, schedule: Q04DX003 (ip), vehicle: Klucel (hydroxypropylcellulose) (HPC)
# [3] = dose: 200.0 mg/kg/injection, schedule: Q04DX003 (ip), vehicle: Klucel (hydroxypropylcellulose) (HPC)
# [4] = dose: 100.0 mg/kg/injection, schedule: Q01DX001 (ip), vehicle: saline
# [5] = dose: 200.0 mg/kg/injection, schedule: Q01DX001 (ip), vehicle: saline
# [6] = dose: 400.0 mg/kg/injection, schedule: Q01DX001 (ip), vehicle: saline
# [7] = dose: 200.0 mg/kg/injection, schedule: Q04DX003 (ip), vehicle: saline
# [8] = dose: 400.0 mg/kg/injection, schedule: Q04DX003 (ip), vehicle: saline
compound,measurement,setting,value
O=Nc1ccc(NO)c2ccccc12,T/C,"dose: 12.5 mg/kg/injection, schedule: Q04DX003 (ip), vehicle: saline",108 % of control
same,T/C,"dose: 25.0 mg/kg/injection, schedule: Q04DX003 (ip), vehicle: saline + alcohol",100 % of control
same,T/C,"dose: 25.0 mg/kg/injection, schedule: Q04DX003 (ip), vehicle: saline",102 % of control
same,T/C,"dose: 50.0 mg/kg/injection, schedule: Q04DX003 (ip), vehicle: saline + alcohol",100 % of control
same,T/C,"dose: 50.0 mg/kg/injection, schedule: Q04DX003 (ip), vehicle: saline",100 % of control
same,T/C,"dose: 100.0 mg/kg/injection, schedule: Q04DX003 (ip), vehicle: saline + alcohol",96 % of control
same,T/C,[1],99 % of control
S=C(Nc1ccccn1)Nc1ccccn1,T/C,"dose: 50.0 mg/kg/injection, schedule: Q01DX009 (ip), vehicle: saline with Tween-80",96 % of control
same,T/C,[2],94 % of control
same,T/C,"dose: 50.0 mg/kg/injection, schedule: Q04DX003 (ip), vehicle: saline with Tween-80",96 % of control
same,T/C,"dose: 100.0 mg/kg/injection, schedule: Q01DX001 (ip), vehicle: carboxymethylcellulose (CMC)",95 % of control
same,T/C,"dose: 100.0 mg/kg/injection, schedule: Q01DX009 (ip), vehicle: saline with Tween-80",103 % of control
same,T/C,"dose: 100.0 mg/kg/injection, schedule: Q04DX003 (ip), vehicle: saline with Tween-80",101 % of control
same,T/C,"dose: 200.0 mg/kg/injection, schedule: Q01DX001 (ip), vehicle: carboxymethylcellulose (CMC)",95 % of control
same,T/C,"dose: 200.0 mg/kg/injection, schedule: Q01DX009 (ip), vehicle: saline with Tween-80",96 % of control
same,T/C,[3],87 % of control
same,T/C,"dose: 200.0 mg/kg/injection, schedule: Q04DX003 (ip), vehicle: saline with Tween-80",184 % of control
same,T/C,"dose: 400.0 mg/kg/injection, schedule: Q01DX001 (ip), vehicle: carboxymethylcellulose (CMC)",92 % of control
COC(=O)CCC1CCC(=O)C1 (centres undefined),T/C,"dose: 37.5 mg/kg/injection, schedule: Q04DX002 (ip), vehicle: saline with Tween-80",95 % of control
same,T/C,"dose: 75.0 mg/kg/injection, schedule: Q04DX002 (ip), vehicle: saline with Tween-80",95 % of control
same,T/C,"dose: 150.0 mg/kg/injection, schedule: Q04DX002 (ip), vehicle: saline with Tween-80",98 % of control
same,T/C,"dose: 300.0 mg/kg/injection, schedule: Q04DX002 (ip), vehicle: saline with Tween-80",95 % of control
COC(=O)C(OC(C)=O)C1OC(n2cnc3c(=S)nc[nH]c32)C(OC(C)=O)C1OC(C)=O (centres undefined),T/C,[4],96 % of control
same,T/C,[5],102 % of control
same,T/C,[6],97 % of control
CC1(C)N=C(N)N=C(N)N1c1ccc(CCNS(=O)(=O)c2cccc(S(=O)(=O)F)c2)cc1,T/C,[4],96 % of control
same,T/C,[5],94 % of control
same,T/C,[6],96 % of control
CN(C)/C=N/NC(=O)C1CC1,T/C,[1],100 % of control
same,T/C,[7],97 % of control
same,T/C,[8],107 % of control
CC1C(=O)OC2C1CCC1(C)C=CC(=O)C3(C)OC213 (centres undefined),T/C,"dose: 100.0 mg/kg/injection, schedule: Q01DX001 (ip), vehicle: Klucel (hydroxypropylcellulose) (HPC)",97 % of control
same,T/C,"dose: 200.0 mg/kg/injection, schedule: Q01DX001 (ip), vehicle: Klucel (hydroxypropylcellulose) (HPC)",94 % of control
same,T/C,"dose: 400.0 mg/kg/injection, schedule: Q01DX001 (ip), vehicle: Klucel (hydroxypropylcellulose) (HPC)",96 % of control
O=C1CCCN1C1=CC2=C(CCc3ccccc32)S(=O)(=O)O1,T/C,"dose: 100.0 mg/kg/injection, schedule: Q01DX009 (ip), vehicle: saline",90 % of control
same,T/C,[1],100 % of control
same,T/C,"dose: 200.0 mg/kg/injection, schedule: Q01DX009 (ip), vehicle: saline",90 % of control
same,T/C,[7],94 % of control
same,T/C,"dose: 400.0 mg/kg/injection, schedule: Q01DX009 (ip), vehicle: saline",95 % of control
same,T/C,[8],108 % of control
Cc1ccc(C(=O)Nc2ccc3c(c2)Cc2ccccc2-3)cc1,T/C,"dose: 50.0 mg/kg/injection, schedule: Q01DX001 (ip), vehicle: saline",101 % of control
same,T/C,[2],104 % of control
same,T/C,[4],101 % of control
same,T/C,"dose: 100.0 mg/kg/injection, schedule: Q04DX003 (ip), vehicle: Klucel (hydroxypropylcellulose) (HPC)",100 % of control
same,T/C,[5],101 % of control
same,T/C,[3],94 % of control
same,T/C,[6],95 % of control
Nc1ncnc2c1ncn2C1OC(CO)C2OP(=O)(O)OC21 (centres undefined),T/C,"dose: 100.0 mg/kg/injection, schedule: Q01DX005 (ip), vehicle: saline",95 % of control
same,T/C,"dose: 200.0 mg/kg/injection, schedule: Q01DX005 (ip), vehicle: saline",118 % of control

# — PubChem BioAssay AID248 (DTP/NCI, 2004)
